Test: optimization of highly concentrated dipyridamole solution for liquid capsule feed (solubility in solvent systems)
Assay type: physicochemical
Conditions: drug solution in PEG 400
Protocol: A model drug, dipyridamole, was chosen to test the suitability of this system to provide immediate and extended drug release. Its fluoresce colour and ease of detection allows focusing on the development process. It was decided that the drug solution PEG 400 (10 mg/ml) is the maximum concentration that can be readily prepared.

maximum concentration that can be readily prepared: 10 mg/mL
Structure (SMILES): OCCN(CCO)c1nc(N2CCCCC2)c2nc(N(CCO)CCO)nc(N3CCCCC3)c2n1 [dipyridamole]
